Converted amounts (≈) assume the structure as drawn.

Sequence of S. aureus GyrB ATPase (P0AES4 whole entry): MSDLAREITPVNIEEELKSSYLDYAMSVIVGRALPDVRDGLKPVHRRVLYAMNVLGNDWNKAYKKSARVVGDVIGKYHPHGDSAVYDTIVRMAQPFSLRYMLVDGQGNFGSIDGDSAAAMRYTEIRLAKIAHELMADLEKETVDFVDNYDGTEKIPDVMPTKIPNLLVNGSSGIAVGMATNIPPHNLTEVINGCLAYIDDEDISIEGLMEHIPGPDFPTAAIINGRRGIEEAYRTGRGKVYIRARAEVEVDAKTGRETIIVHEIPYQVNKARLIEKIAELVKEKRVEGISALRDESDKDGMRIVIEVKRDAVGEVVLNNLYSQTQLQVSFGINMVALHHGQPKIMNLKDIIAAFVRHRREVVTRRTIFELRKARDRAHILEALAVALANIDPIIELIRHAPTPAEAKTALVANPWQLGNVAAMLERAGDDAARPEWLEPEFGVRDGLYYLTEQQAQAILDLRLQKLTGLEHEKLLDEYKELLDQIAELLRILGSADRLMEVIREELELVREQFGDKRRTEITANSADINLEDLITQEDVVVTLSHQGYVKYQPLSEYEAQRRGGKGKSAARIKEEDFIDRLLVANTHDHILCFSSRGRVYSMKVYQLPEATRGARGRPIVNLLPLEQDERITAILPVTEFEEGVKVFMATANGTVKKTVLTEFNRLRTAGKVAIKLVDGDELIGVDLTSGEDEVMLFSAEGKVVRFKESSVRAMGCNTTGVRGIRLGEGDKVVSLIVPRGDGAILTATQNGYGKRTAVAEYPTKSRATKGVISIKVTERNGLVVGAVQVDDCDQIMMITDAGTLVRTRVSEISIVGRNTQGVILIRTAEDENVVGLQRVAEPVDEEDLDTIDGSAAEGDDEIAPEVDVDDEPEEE
Sequence of S. aureus GyrB ATPase (P0A0K8 whole entry): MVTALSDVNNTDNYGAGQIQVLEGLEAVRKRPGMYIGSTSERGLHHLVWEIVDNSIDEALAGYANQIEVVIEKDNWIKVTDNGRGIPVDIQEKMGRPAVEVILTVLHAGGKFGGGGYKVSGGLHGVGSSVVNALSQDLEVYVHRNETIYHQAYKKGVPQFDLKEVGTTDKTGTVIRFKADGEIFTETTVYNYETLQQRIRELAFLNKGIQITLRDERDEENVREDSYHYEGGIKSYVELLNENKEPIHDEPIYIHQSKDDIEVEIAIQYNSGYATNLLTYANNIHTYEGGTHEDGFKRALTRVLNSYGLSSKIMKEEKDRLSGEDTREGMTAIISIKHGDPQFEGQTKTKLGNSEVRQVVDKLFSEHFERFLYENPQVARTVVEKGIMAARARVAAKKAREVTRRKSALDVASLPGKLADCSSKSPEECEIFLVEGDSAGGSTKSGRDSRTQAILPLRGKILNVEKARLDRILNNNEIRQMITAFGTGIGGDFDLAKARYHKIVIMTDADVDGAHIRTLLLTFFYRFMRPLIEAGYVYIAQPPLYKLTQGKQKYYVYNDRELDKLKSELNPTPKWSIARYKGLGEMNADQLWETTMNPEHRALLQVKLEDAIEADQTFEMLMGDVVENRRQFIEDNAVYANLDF

The subject of the first experiment is Streptococcus pneumoniae. The experiment is described as follows: Bacterial susceptibility testing in liquid media (MIC). In kind it is cell-based. The conditions noted are these: 37° C., 24 hrs, lowest concentration reducing growth by 80% or more, read-out: MIC against Streptococcus pneumoniae. An excerpt:
Compounds may be tested for antimicrobial activity by susceptibility testing in liquid media. Compounds may be dissolved in dimethylsulfoxide and tested in 10 doubling dilutions in the susceptibility assays. The organisms used in the assay may be grown overnight on suitable agar media and then suspended in a liquid medium appropriate for the growth of the organism. The suspension can be a 0.5 McFarland and a further 1 in 10 dilution can be made into the same liquid medium to prepare the final organism suspension in 100 μL. Plates can be incubated under appropriate conditions at 37° C. for 24 hrs prior to reading. The Minimum Inhibitory Concentration (MIC) may be determined as the lowest drug concentration able to reduce growth by 80% or more.
What is called MIC is the lowest concentration found to suppress growth. Take `COc1cc(OC)nc(-c2nc(N3CC[C@@H](NC(=O)c4[nH]c(C)c(Cl)c4Cl)[C@@H](OC)C3)sc2C(=O)O)n1` [Example 11, 2-((3S,4R)-4-{[(3,4-Dichloro-5-methyl-1H-pyrrol-2-yl)carbonyl]amino}-3-methoxypiperidin-1-yl)-4-(4,6-dimethoxypyrimidin-2-yl)-1,3-thiazole-5-carboxylic acid]: the MIC amounted to 0.06 µg/mL (≈ 0.105 µM).

The target of the next experiment is S. aureus GyrB ATPase (Staphylococcus aureus, UniProt P0A0K8). The experiment can be described thus: S. aureus GyrB ATPase inhibition (ammonium molybdate/malachite green phosphate detection). Type of experiment: biochemical. The conditions noted are these: compound concentration of 1 μM. The method in brief:
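E. coli GyrA and S. aureus GyrB (250 pM each) with sheared salmon sperm DNA and 250 μM ATP, pH 7.5 Hepes buffer. Released phosphate detected by malachite green/ammonium molybdate at 650 nm; percent inhibition at 1 μM compound unless noted, normalized to 2% DMSO (0%) and EDTA (100%) controls.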
As a reminder, the inhibition is the change of the read-out against control, counted positive when it falls. Regarding `COc1cc(OC)nc(-c2nc(N3CC[C@@H](NC(=O)c4[nH]c(C)c(Cl)c4Cl)[C@@H](OC)C3)sc2C(=O)O)n1` [Example 11, 2-((3S,4R)-4-{[(3,4-Dichloro-5-methyl-1H-pyrrol-2-yl)carbonyl]amino}-3-methoxypiperidin-1-yl)-4-(4,6-dimethoxypyrimidin-2-yl)-1,3-thiazole-5-carboxylic acid], the inhibition at 1 µM was 92%.

Turning to `CO[C@H]1CN(c2nc(-c3cnc(C)cn3)c(C(=O)O)s2)CC[C@H]1NC(=O)c1[nH]c(C)c(Cl)c1C#N` [Example 124, 2-((3S,4R)-4-(4-chloro-3-cyano-5-methyl-1H-pyrrole-2-carboxamido)-3-methoxypiperidin-1-yl)-4-(5-methylpyrazin-2-yl)thiazole-5-carboxylic acid], the inhibition at 1 µM came out at 104%.

For the molecule `CO[C@H]1CN(c2nc(-c3cn(C)cn3)c(C(=O)O)s2)CC[C@H]1NC(=O)c1[nH]c(C)c(Cl)c1C#N` [Example 125, 2-((3S,4R)-4-(4-chloro-3-cyano-5-methyl-1H-pyrrole-2-carboxamido)-3-methoxypiperidin-1-yl)-4-(1-methyl-1H-imidazol-4-yl)thiazole-5-carboxylic acid], the inhibition at 1 µM turned out to be 103%.

As to `Cc1[nH]c(C(=O)N[C@@H]2CCN(c3nc(-c4ncnn4C)c(C(=O)O)s3)C[C@@H]2OCc2ccccc2)c(Cl)c1Cl` [Example 141, 2-[(3S,4R)-3-(benzyloxy)-4-{[(3,4-dichloro-5-methyl-1H-pyrrol-2-yl)carbonyl]amino}piperidin-1-yl]-4-(1-methyl-1H-1,2,4-triazol-5-yl)-1,3-thiazole-5-carboxylic acid], the inhibition at 1 µM worked out at 116%.

`COCCn1ccnc1-c1nc(N2CC[C@@H](NC(=O)c3[nH]c(C)c(Cl)c3Cl)[C@@H](OCc3ccccc3)C2)sc1C(=O)O` [Example 143, 2-[(3S,4R)-3-(benzyloxy)-4-{[(3,4-dichloro-5-methyl-1H-pyrrol-2-yl)carbonyl]amino}piperidin-1-yl]-4-[1-(2-methoxyethyl)-1H-imidazol-2-yl]-1,3-thiazole-5-carboxylic acid]: the inhibition at 1 µM came out at 98.8%.

As for `Cc1[nH]c(C(=O)N[C@@H]2CCN(c3nc(-c4ncccc4F)c(C(=O)O)s3)C[C@@H]2OCc2ccccc2)c(Cl)c1Cl` [Example 144, 2-[(3S,4R)-3-(benzyloxy)-4-{[(3,4-dichloro-5-methyl-1H-pyrrol-2-yl)carbonyl]amino}piperidin-1-yl]-4-(3-fluoropyridin-2-yl)-1,3-thiazole-5-carboxylic acid], the inhibition at 1 µM turned out to be 114%.

Regarding `Cc1[nH]c(C(=O)N[C@@H]2CCN(c3nc(-c4cnccn4)c(C(=O)O)s3)C[C@@H]2OCc2ccccc2)c(Cl)c1Cl` [Example 145, 2-[(3S,4R)-3-(benzyloxy)-4-{[(3,4-dichloro-5-methyl-1H-pyrrol-2-yl)carbonyl]amino}piperidin-1-yl]-4-(pyrazin-2-yl)-1,3-thiazole-5-carboxylic acid], the inhibition at 1 µM was determined as 113%.

As to `Cc1[nH]c(C(=O)N[C@@H]2CCN(c3nc(-c4ncnn4C)c(C(=O)O)s3)C[C@@H]2OCc2ccccc2)cc1Cl` [Example 146, 2-[(3S,4R)-3-(benzyloxy)-4-{[(4-chloro-5-methyl-1H-pyrrol-2-yl)carbonyl]amino}piperidin-1-yl]-4-(1-methyl-1H-1,2,4-triazol-5-yl)-1,3-thiazole-5-carboxylic acid], the inhibition at 1 µM is 116%.

As to `COCCn1ccnc1-c1nc(N2CC[C@@H](NC(=O)c3cc(Cl)c(C)[nH]3)[C@@H](OCc3ccccc3)C2)sc1C(=O)O` [Example 148, 2-[(3S,4R)-3-(benzyloxy)-4-{[(4-chloro-5-methyl-1H-pyrrol-2-yl)carbonyl]amino}piperidin-1-yl]-4-[1-(2-methoxyethyl)-1H-imidazol-2-yl]-1,3-thiazole-5-carboxylic acid], the inhibition at 1 µM came to 99.9%.

Take `Cc1[nH]c(C(=O)N[C@@H]2CCN(c3nc(-c4ncccc4F)c(C(=O)O)s3)C[C@@H]2OCc2ccccc2)cc1Cl` [Example 149, 2-[(3S,4R)-3-(benzyloxy)-4-{[(4-chloro-5-methyl-1H-pyrrol-2-yl)carbonyl]amino}piperidin-1-yl]-4-(3-fluoropyridin-2-yl)-1,3-thiazole-5-carboxylic acid]: the inhibition at 1 µM came out at 103%.

Consider `Cc1[nH]c(C(=O)N[C@@H]2CCN(c3nc(-c4cnccn4)c(C(=O)O)s3)C[C@@H]2OCc2ccccc2)cc1Cl` [Example 150, 2-[(3S,4R)-3-(benzyloxy)-4-{[(4-chloro-5-methyl-1H-pyrrol-2-yl)carbonyl]amino}piperidin-1-yl]-4-(pyrazin-2-yl)-1,3-thiazole-5-carboxylic acid], for which the inhibition at 1 µM came to 102%.

For the molecule `Cc1[nH]c(C(=O)N[C@@H]2CCN(c3nc(-c4ncnn4C)c(C(=O)O)s3)C[C@@H]2OCc2ccccc2)c(C#N)c1Cl` [Example 151, 2-[(3S,4R)-3-(benzyloxy)-4-{[(4-chloro-3-cyano-5-methyl-1H-pyrrol-2-yl)carbonyl]amino}piperidin-1-yl]-4-(1-methyl-1H-1,2,4-triazol-5-yl)-1,3-thiazole-5-carboxylic acid], the inhibition at 1 µM was 115%.

`COCCn1ccnc1-c1nc(N2CC[C@@H](NC(=O)c3[nH]c(C)c(Cl)c3C#N)[C@@H](OCc3ccccc3)C2)sc1C(=O)O` [Example 153]: the inhibition at 1 µM turned out to be 98.6%.

In the case of `Cc1[nH]c(C(=O)N[C@@H]2CCN(c3nc(-c4ncccc4F)c(C(=O)O)s3)C[C@@H]2OCc2ccccc2)c(C#N)c1Cl` [Example 154, 2-[(3S,4R)-3-(benzyloxy)-4-{[(4-chloro-3-cyano-5-methyl-1H-pyrrol-2-yl)carbonyl]amino}piperidin-1-yl]-4-(3-fluoropyridin-2-yl)-1,3-thiazole-5-carboxylic acid], the inhibition at 1 µM came to 112%.

`Cc1[nH]c(C(=O)N[C@@H]2CCN(c3nc(-c4cnccn4)c(C(=O)O)s3)C[C@@H]2OCc2ccccc2)c(C#N)c1Cl` [Example 155, 2-[(3S,4R)-3-(benzyloxy)-4-{[(4-chloro-3-cyano-5-methyl-1H-pyrrol-2-yl)carbonyl]amino}piperidin-1-yl]-4-(pyrazin-2-yl)-1,3-thiazole-5-carboxylic acid]: the inhibition at 1 µM came out at 110%.

Consider `CCCO[C@H]1CN(c2nc(-c3ncnn3C)c(C(=O)O)s2)CC[C@H]1NC(=O)c1[nH]c(C)c(Cl)c1Cl` [Example 159, 2-[(3S,4R)-4-{[(3,4-dichloro-5-methyl-1H-pyrrol-2-yl)carbonyl]amino}-3-propoxypiperidin-1-yl]-4-(1-methyl-1H-1,2,4-triazol-5-yl)-1,3-thiazole-5-carboxylic acid], for which the inhibition at 1 µM is 31%.

In the case of `CCCO[C@H]1CN(c2nc(-c3ncccc3F)c(C(=O)O)s2)CC[C@H]1NC(=O)c1[nH]c(C)c(Cl)c1Cl` [Example 160, 2-[(3S,4R)-4-{[(3,4-dichloro-5-methyl-1H-pyrrol-2-yl)carbonyl]amino}-3-propoxypiperidin-1-yl]-4-(3-fluoropyridin-2-yl)-1,3-thiazole-5-carboxylic acid], the inhibition at 1 µM came to 4.5%.

Still in this experiment, the particulars now being: compound tested at a concentration of 5 μM.
As to `CCCO[C@H]1CN(c2nc(-c3cnccn3)c(C(=O)O)s2)CC[C@H]1NC(=O)c1[nH]c(C)c(Cl)c1Cl` [Example 161, 2-[(3S,4R)-4-{[(3,4-dichloro-5-methyl-1H-pyrrol-2-yl)carbonyl]amino}-3-propoxypiperidin-1-yl]-4-(pyrazin-2-yl)-1,3-thiazole-5-carboxylic acid], the inhibition at 5 µM is 14%.

(Values after patent publication US20080312255A1 (ASTRAZENECA AB, priority 2007, published 2008).)
